# Source: the supplement of paper PMC10307832
# What was measured:
# Assay in all cases: relative viability (nuclei count vs DMSO), 5 days (fraction); higher = more cells survive
# Alpelisib + Crizotinib = compound: Cc1nc(NC(=O)N2CCC[C@H]2C(N)=O)sc1-c1ccnc(C(C)(C)C(F)(F)F)c1 [Alpelisib] + C[C@@H](Oc1cc(-c2cnn(C3CCNCC3)c2)cnc1N)c1c(Cl)ccc(F)c1Cl [Crizotinib] (partner 1 µM)
# Method in brief: (§1)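 One day after seeding in 1536-well plates, lung cancer cell lines were dosed by pin tool. Dosing was either single-drug or a fixed anchor-drug dose plus five library-drug doses (not always all listed) in √10 steps. After 5 days, nuclei were stained in one fix-and-stain step and counted on 4× images, and relative viability is the nuclei count of treated wells over that of vehicle wells, given as the median of duplicate plates.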
# Alpelisib + Linsitinib = compound: Cc1nc(NC(=O)N2CCC[C@H]2C(N)=O)sc1-c1ccnc(C(C)(C)C(F)(F)F)c1 [Alpelisib] + C[C@]1(O)C[C@@H](c2nc(-c3ccc4ccc(-c5ccccc5)nc4c3)c3c(N)nccn32)C1 [Linsitinib] (partner 1 µM)
# Method in brief: as §1
# Vemurafenib + Crizotinib = compound: CCCS(=O)(=O)Nc1ccc(F)c(C(=O)c2c[nH]c3ncc(-c4ccc(Cl)cc4)cc23)c1F [Vemurafenib] + C[C@@H](Oc1cc(-c2cnn(C3CCNCC3)c2)cnc1N)c1c(Cl)ccc(F)c1Cl [Crizotinib] (partner 1 µM)
# Method in brief: as §1
# Vemurafenib + OSI-027 = compound: CCCS(=O)(=O)Nc1ccc(F)c(C(=O)c2c[nH]c3ncc(-c4ccc(Cl)cc4)cc23)c1F [Vemurafenib] + COc1cccc2cc(-c3nc([C@H]4CC[C@H](C(=O)O)CC4)n4ncnc(N)c34)[nH]c12 [OSI-027] (partner 0.5 µM)
# Method in brief: as §1
Cell Line,relative viability (Alpelisib + Crizotinib; first compound 0.04 µM),relative viability (Alpelisib + Crizotinib; first compound 0.1265 µM),relative viability (Alpelisib + Crizotinib; first compound 0.4 µM),relative viability (Alpelisib + Crizotinib; first compound 1.265 µM),relative viability (Alpelisib + Crizotinib; first compound 4 µM),relative viability (Alpelisib + Linsitinib; first compound 0.04 µM),relative viability (Alpelisib + Linsitinib; first compound 0.1265 µM),relative viability (Alpelisib + Linsitinib; first compound 0.4 µM),relative viability (Alpelisib + Linsitinib; first compound 1.265 µM),relative viability (Alpelisib + Linsitinib; first compound 4 µM),relative viability (Vemurafenib + Crizotinib; first compound 0.03162 µM),relative viability (Vemurafenib + Crizotinib; first compound 0.3162 µM),relative viability (Vemurafenib + Crizotinib; first compound 1 µM),relative viability (Vemurafenib + OSI-027; first compound 0.03162 µM),relative viability (Vemurafenib + OSI-027; first compound 0.1 µM),relative viability (Vemurafenib + OSI-027; first compound 0.3162 µM),relative viability (Vemurafenib + OSI-027; first compound 1 µM),relative viability (Vemurafenib + Crizotinib; first compound 0.1 µM)
NCI-H358,0.785,0.534,0.725,0.473,0.354,0.683,0.657,0.605,0.334,0.397,0.619,0.72,0.528,0.7,0.47,0.928,0.882,–
NCI-H441,0.743,0.567,0.746,0.432,0.435,0.734,0.403,0.698,0.524,0.492,0.705,0.743,0.616,0.57,0.476,0.584,0.418,0.684
NCI-H460,0.855,1.02,0.926,0.285,0.296,0.716,0.722,0.516,0.261,0.284,0.808,0.692,0.942,0.549,0.623,0.456,0.473,0.809
NCI-H520,0.823,0.75,0.739,0.463,0.515,1.01,1.04,1.01,1.02,0.723,0.659,0.765,0.703,0.236,0.282,0.327,0.214,0.755
NCI-H596,1.06,1.01,0.841,0.616,0.406,1.05,1.03,0.867,0.555,0.477,0.97,0.992,1.09,0.686,0.723,0.577,0.492,1.01
NCI-H647,1.03,1.08,1.11,0.933,0.913,1.01,1.29,1.13,1.12,1.12,1.03,0.884,0.713,0.636,0.629,0.477,0.564,0.963
NCI-H650,0.737,0.693,0.88,0.478,0.546,0.819,0.706,0.894,0.587,0.807,0.705,0.418,0.581,0.459,0.473,–,0.421,0.72
NCI-H661,0.968,0.96,1.07,1.01,0.937,0.58,0.573,0.613,0.439,0.458,0.819,–,0.949,0.673,0.559,0.658,0.688,1.07
NCI-H727,0.839,0.771,0.891,0.717,0.508,0.292,0.306,0.388,0.27,0.177,0.793,1.2,0.954,0.571,0.561,1.08,0.526,0.623
NCI-H838,0.774,0.768,0.932,0.73,0.772,0.969,1.02,0.983,0.807,0.956,0.761,–,0.928,0.367,0.404,–,0.436,0.783
NCI-H1355,1.07,1.11,1.09,0.809,0.824,0.762,0.837,0.828,0.774,0.722,1,0.992,1.05,0.41,0.341,0.386,0.351,0.963
NCI-H1437,0.904,0.919,1,0.906,0.942,1.06,1.02,1.05,0.827,0.844,0.801,0.895,0.906,0.857,0.85,0.855,0.875,0.937
NCI-H1563,0.877,0.89,0.753,0.775,0.707,1.18,1.19,1.2,1.06,1.19,0.825,0.823,0.852,0.693,0.757,0.734,0.723,0.744
NCI-H1651,0.845,0.906,0.889,0.784,0.694,0.953,0.932,0.963,0.932,0.956,0.875,0.806,0.795,0.733,0.725,0.698,0.829,0.869
NCI-H1666,0.914,0.87,0.932,0.765,0.747,0.805,0.705,0.772,1.01,0.793,1.02,1.24,1.05,0.845,0.802,0.98,0.929,–
NCI-H1734,0.633,0.605,0.715,0.506,0.382,0.814,0.885,0.875,0.71,0.489,0.665,0.579,0.516,0.583,0.568,0.49,0.507,0.684
NCI-H1755,0.828,0.819,0.966,0.801,0.578,1.01,0.941,1.03,0.978,0.764,0.798,0.844,0.79,0.696,0.687,0.586,0.632,0.842
NCI-H1792,1.01,0.884,0.983,0.886,0.72,0.505,0.566,0.619,0.539,0.38,0.905,0.806,1,0.705,0.616,–,0.704,0.913

Cell Line,relative viability (Alpelisib + Crizotinib; first compound 0.04 µM),relative viability (Alpelisib + Crizotinib; first compound 0.1265 µM),relative viability (Alpelisib + Crizotinib; first compound 0.4 µM),relative viability (Alpelisib + Crizotinib; first compound 1.265 µM),relative viability (Alpelisib + Crizotinib; first compound 4 µM),relative viability (Alpelisib + Linsitinib; first compound 0.04 µM),relative viability (Alpelisib + Linsitinib; first compound 0.1265 µM),relative viability (Alpelisib + Linsitinib; first compound 0.4 µM),relative viability (Alpelisib + Linsitinib; first compound 1.265 µM),relative viability (Alpelisib + Linsitinib; first compound 4 µM),relative viability (Vemurafenib + Crizotinib; first compound 0.03162 µM),relative viability (Vemurafenib + Crizotinib; first compound 0.3162 µM),relative viability (Vemurafenib + Crizotinib; first compound 1 µM),relative viability (Vemurafenib + OSI-027; first compound 0.03162 µM),relative viability (Vemurafenib + OSI-027; first compound 0.1 µM),relative viability (Vemurafenib + OSI-027; first compound 0.3162 µM),relative viability (Vemurafenib + OSI-027; first compound 1 µM),relative viability (Vemurafenib + Crizotinib; first compound 0.1 µM)
NCI-H1915,0.903,0.936,0.988,0.78,0.8,1.11,1.1,1.17,1.02,1.08,0.874,0.853,0.769,0.585,0.639,0.471,0.533,0.908
NCI-H1944,1.01,1.24,1.14,0.725,0.523,0.985,1.2,1.17,0.858,0.543,1.03,1.09,1.06,0.395,0.285,0.336,0.352,0.816
NCI-H1975,0.877,1.01,0.968,0.753,0.68,0.96,0.915,0.91,0.67,0.548,0.955,0.837,1.02,0.647,0.631,0.4,0.564,0.926
NCI-H1993,0.817,0.845,0.799,0.603,0.604,0.732,0.737,0.762,0.702,0.749,0.906,0.935,0.818,0.523,–,0.607,0.494,–
NCI-H2009,1.04,1.02,1.11,0.953,0.831,1.2,1.12,1.27,1.19,1.12,1.02,0.754,0.962,0.606,0.483,0.389,0.325,0.924
NCI-H2023,0.53,0.565,0.476,0.389,0.257,0.612,0.634,0.628,0.574,0.444,0.534,0.704,0.675,0.316,0.293,0.408,0.316,0.452
NCI-H2085,0.808,0.769,0.758,0.814,0.796,0.874,0.905,0.852,0.731,0.853,0.875,0.822,0.783,0.645,0.37,0.663,0.637,0.841
NCI-H2087,0.781,0.892,0.958,0.732,0.658,0.853,0.979,1.05,0.803,1.07,0.844,–,0.79,0.481,0.565,–,0.514,1
NCI-H2126,1.02,0.957,0.992,0.88,0.735,0.682,0.716,0.66,0.698,0.63,1.02,1.02,1.04,0.606,0.591,0.856,0.651,1.04
NCI-H2228,0.514,0.402,0.403,0.303,0.304,0.762,0.496,0.564,0.517,0.287,0.428,0.688,0.469,0.548,0.634,0.634,0.474,0.417
NCI-H2347,0.674,0.897,0.859,0.603,0.61,0.997,0.941,1.03,0.84,0.952,0.655,0.397,0.69,0.436,0.37,0.577,0.367,0.657
NCI-H2405,0.858,0.772,0.889,0.662,0.735,1.07,0.935,1.02,0.781,0.847,0.865,–,0.766,0.611,0.637,–,0.621,0.827
NCI-H3122,0.27,0.308,0.227,0.196,0.2,0.994,0.938,1.02,0.715,0.675,0.266,0.383,0.211,0.932,0.893,1.04,0.899,0.263
PC-3 [JPC-3],1.03,1.05,1.07,0.901,0.969,0.948,0.974,1.03,0.883,0.933,0.91,1.01,1.01,0.698,–,0.724,0.731,–
PC-14,0.817,0.893,1.04,0.842,0.766,0.91,0.894,0.98,0.856,0.816,0.749,0.849,0.852,0.822,–,0.741,0.767,–
RERF-LC-KJ,0.76,0.77,0.83,0.787,0.741,0.816,0.878,0.823,0.734,0.749,0.838,0.832,0.922,0.651,0.454,0.533,0.632,0.834
SK-LU-1,0.987,0.792,1.01,0.773,0.763,1.22,1.14,1.27,0.939,1.06,0.855,0.664,0.72,0.315,0.342,0.245,0.269,0.905
SK-MES-1,1.03,0.875,0.968,0.83,0.67,1.13,1.04,1.22,0.939,0.99,0.934,0.903,0.901,0.56,0.456,0.548,0.444,0.978
